Measurements taken from patent US20260159618A1, “COMPOUND, POLYMERIZABLE COMPOSITION, POLYMER, HOLOGRAPHIC RECORDING MEDIUM, OPTICAL MATERIAL, AND OPTICAL COMPONENT” (Mitsubishi Chemical Corporation, priority 2022, published 2026).
Like-named read-outs stand apart in the source and are kept apart here.

Assays:
[1] = prior-art compounds, background art; cited from earlier work
[2] = Refractive index measurement of polymerizable monomer (Kalnew precision refractometer); assay type: physicochemical; parameters: key to Refractive Index (dash symbol): ⊚: 0.019 or more; ◯: 0.015 or more and less than 0.019; Δ: 0.010 or more and less than 0.015; x: less than 0.010; —: impossible to measure; conditions: for Refractive Index: 23° C., helium lamp d-line (587.6 nm), calculated for 100% by mass from calibration curve of 10 and 20% by mass test solutions; for Refractive Index (dash symbol): sample not suitable for refractive index measurement
Protocol: The refractive index of the compound M-1 was measured using the following method. The refractive indexes of the polymerizable monomers produced in the Examples and Comparative Examples were also measured using the same method.
A test solution was prepared by dissolving the sample in a mixed solution of 3-phenoxybenzyl acrylate and trimethylolpropane trimethacrylate in a mass ratio of 4:1 to obtain the specified concentration.
Two types of test solutions were prepared, with sample concentrations of 10% by mass and 20% by mass.
The refractive index of each test solution was measured using a Kalnew precision refractometer (manufactured by Shimadzu Corporation, product name: KPR-2000). The temperature of the test solution was 23° C., and the measurement wavelength was helium lamp d-line (587.6 nm). Based on the measurement results, a calibration curve showing the correlation between sample concentration and refractive index was created, and the refractive index when the sample concentration was 100% by mass was calculated from the obtained calibration curve, and was taken as the refractive index of the sample.

[3] = Solubility in Duranate TSS-100, visual observation; assay type: physicochemical; conditions: 0.63 g monomer dissolved in 2.53 g Duranate TSS-100, visually observed
Protocol: (§1) When 0.63 g of polymerizable monomers M-1 to M-11 and R-1 to R-4 were dissolved in 2.53 g of Duranate (registered trademark) TSS-100, the state of the solution was visually observed and the solubility was evaluated as ∘ (completely dissolved), Δ (cloudy), or x (solid remaining in solution). In addition, the state of each solution was visually observed when it was stored at room temperature for 10 days and the storage stability was evaluated as ∘ (completely dissolved), Δ (cloudy), or x (solid remaining in solution).

[4] = Storage stability of the TSS-100 solution, visual observation; assay type: physicochemical; parameters: key: ∘: completely dissolved; Δ: cloudy; x: solid remaining in solution; conditions: solution in Duranate TSS-100 stored at room temperature for 10 days, visually observed
Protocol: as §1

Refractive Index (dash symbol) [2] | Structure (SMILES) | Refractive Index [1] | Refractive Index [2] | Solubility [3] | Storage Stability [4]
 | C=CC(=O)OCCOc1ccc(C2(c3ccc(OCCOC(=O)C=C)cc3)c3ccccc3-c3ccccc32)cc1 [9,9-bis[4-(2-acryloyloxyethoxy)phenyl]fluorene] | about 1.62 |  |  | 
 | C=C(C)C(=O)OCCNC(=O)Oc1c(-c2cccc3c2sc2ccccc23)cc(-c2cccc3c2sc2ccccc23)cc1-c1cccc2c1sc1ccccc12 [Compound M-1] |  | 1.6818 | ◯ | ◯
 | C=C(C)C(=O)OCCNC(=O)Oc1c(-c2cc3ccccc3c3ccccc23)cc(-c2cc3ccccc3c3ccccc23)cc1-c1cc2ccccc2c2ccccc12 [Compound M-2] |  | 1.6898 | ◯ | ◯
 | C=CC(=O)OCCNC(=O)Oc1c(-c2cccc3c2sc2ccccc23)cc(-c2cccc3c2sc2ccccc23)cc1-c1cccc2c1sc1ccccc12 [Compound M-3] |  | 1.6891 | ◯ | ◯
 | C=CC(=O)OCCNC(=O)Oc1c(-c2cc3ccccc3c3ccccc23)cc(-c2cc3ccccc3c3ccccc23)cc1-c1cc2ccccc2c2ccccc12 [Compound M-4] |  | 1.6894 | ◯ | ◯
 | C=C(C)C(=O)OCCNC(=O)Oc1c(-c2ccc3ccccc3c2)cc(-c2ccc3ccccc3c2)cc1-c1ccc2ccccc2c1 [Compound M-5] |  | 1.6798 | ◯ | ◯
 | C=C(C)C(=O)OCCOCCNC(=O)Oc1c(-c2cc3ccccc3c3ccccc23)cc(-c2cc3ccccc3c3ccccc23)cc1-c1cc2ccccc2c2ccccc12 [Compound M-6] |  | 1.7013 | ◯ | ◯
 | C=CC(=O)OCCNC(=O)OCCOc1c(-c2cc3ccccc3c3ccccc23)cc(-c2cc3ccccc3c3ccccc23)cc1-c1cc2ccccc2c2ccccc12 [Compound M-7] |  | 1.7104 | ◯ | ◯
 | C=C(C)C(=O)OCCNC(=O)OCCOc1c(-c2cc3ccccc3c3ccccc23)cc(-c2cc3ccccc3c3ccccc23)cc1-c1cc2ccccc2c2ccccc12 [Compound M-8] |  | 1.7042 | ◯ | ◯
 | C=C(C)C(=O)OCCOCCNC(=O)OCCOc1c(-c2cc3ccccc3c3ccccc23)cc(-c2cc3ccccc3c3ccccc23)cc1-c1cc2ccccc2c2ccccc12 [Compound M-9] |  | 1.6975 | ◯ | ◯
 | C=CC(=O)OCCOc1c(-c2cc3ccccc3c3ccccc23)cc(-c2cc3ccccc3c3ccccc23)cc1-c1cc2ccccc2c2ccccc12 [Compound M-10] |  | 1.7323 | ◯ | ◯
 | C=CC(=O)OCCCOc1c(-c2cc3ccccc3c3ccccc23)cc(-c2cc3ccccc3c3ccccc23)cc1-c1cc2ccccc2c2ccccc12 [Compound M-11] |  | 1.7316 | ◯ | ◯
 | C=CC(=O)OCCNC(=O)Oc1ccc(-c2cccc3c2sc2ccccc23)cc1-c1cccc2c1sc1ccccc12 [Compound R-1, reference compound] |  | 1.6762 |  | Δ
 | C=CC(=O)Oc1c(-c2cccc3c2sc2ccccc23)cc(-c2cccc3c2sc2ccccc23)cc1-c1cccc2c1sc1ccccc12 [Compound R-2, reference compound] |  | 1.7056 |  | Δ
— | C=CC(=O)OCCOc1c(-c2cccc3c2sc2ccccc23)cc(-c2cccc3c2sc2ccccc23)cc1-c1cccc2c1sc1ccccc12 [Compound R-3, reference compound] |  |  |  | 
— | C=CC(=O)OCCCCOc1c(-c2cccc3c2sc2ccccc23)cc(-c2cccc3c2sc2ccccc23)cc1-c1cccc2c1sc1ccccc12 [Compound R-4, reference compound] |  |  |  | 
